Test results taken from patent US20250213505A1, “DEVICES AND METHODS FOR DELIVERING SYNERGISTIC ACTIVE AGENTS TO TARGET SITES” (priority 2023, published 2025).
Read-outs that look alike come from different tables or passages of the source.

Experiments:
Type in all cases: cell-based
[1] = system: P. aeruginosa (ATCC 15442); assay: Minimum inhibitory concentration / growth inhibition, serial 2-fold dilution
Procedure: (§1) The minimal inhibitory concentration (MIC, the minimum inhibitory concentration required for 90% growth reduction) of benzalkonium chloride was determined against S. aureus (ATCC 6538), P. aeruginosa (ATCC 15442), and E. coli (ATCC BAA 1427) by serial 2-fold dilution experiments. A solution of chlorhexidine (0.025% w/w) was used as a positive control and comparator.

E. coli (ATCC BAA 1427) [2] = assay: as above
Procedure: as §1

S. aureus (ATCC 6538) [3] = assay: as above
Procedure: as §1

S. aureus = assay: Chequerboard assay, FIC and synergy analysis; conditions: for MIC: Staphylococcus aureus
Procedure: (§2) Chlorhexidine gluconate (CHG) and benzalkonium chloride (BZK) were analyzed by chequerboard assay with each test organism to determine potential additive, synergistic, antagonistic activity. The test organisms S. aureus, P. aeruginosa, and E. coli were tested at ranges of chlorhexidine gluconate (0.122-15.625 μg/mL, 1.25-160 μg/mL, and […], respectively) and benzalkonium chloride (0.029-3.75 μg/mL, 0.4688-60 μg/mL, and 0.2344-30 μg/mL, respectively). The results of the chequerboard experiment are shown in Table X. FIC was calculated by the following Equation 2: […]

E. coli = assay: Chequerboard assay, FIC and synergy analysis; conditions: for MIC: Escherichia coli
Procedure: as §2

P. aeruginosa = assay: Chequerboard assay, FIC and synergy analysis; conditions: for MIC: Pseudomonas aeruginosa
Procedure: as §2

[4] = system: P. aeruginosa (ATCC 15442); assay: Minimal bactericidal concentration, serial 2-fold dilution
Procedure: (§3) The minimal bactericidal concentration (MBC) of benzalkonium chloride was determined against S. aureus (ATCC 6538), P. aeruginosa (ATCC 15442), and E. coli (ATCC BAA 1427) by serial 2-fold dilution experiments. A solution of chlorhexidine (0.025% w/w) was used as a positive control and comparator.

E. coli (ATCC BAA 1427) [5] = assay: as above
Procedure: as §3

S. aureus (ATCC 6538) [6] = assay: as above
Procedure: as §3

[7] = read-out: MIC of CHG in Presence of BZK
[8] = concentration 250 μg/mL (0.025% w/w), positive control
[9] = concentration 250 μg/mL (0.025% w/w), positive control, listed as chlorhexidine
[10] = concentration 250 μg/mL, positive control
[11] = concentration 0.46875 μg/mL, triplicate
[12] = concentration 0.9375 μg/mL, triplicate
[13] = concentration 1.875 μg/mL, triplicate
[14] = concentration 3.75 μg/mL, triplicate
[15] = concentration 7.5 μg/mL, triplicate
[16] = concentration 15 μg/mL, triplicate
[17] = concentration 30 μg/mL, triplicate
[18] = concentration 60 μg/mL, triplicate
[19] = serial 2-fold dilution, triplicate
[20] = concentration 0.46875 μg/mL, average of triplicate
[21] = concentration 0.9375 μg/mL, average of triplicate
[22] = concentration 1.875 μg/mL, average of triplicate
[23] = concentration 3.75 μg/mL, average of triplicate
[24] = concentration 7.5 μg/mL, average of triplicate
[25] = concentration 15 μg/mL, average of triplicate
[26] = concentration 30 μg/mL, average of triplicate
[27] = concentration 60 μg/mL, average of triplicate

N=C(NCCCCCCNC(=N)NC(=N)Nc1ccc(Cl)cc1)NC(=N)Nc1ccc(Cl)cc1 [Chlorhexidine gluconate, 1-[amino-[6-[amino-[amino-(4-chlorophenyl)amino-methylidene]amino-methylidene]aminohexylimino]methyl]imino-N-(4-chlorophenyl)-methanediamine; (2R,3S,4R,5R)-2,3,4,5,6-pentahydroxyhexanoic acid.]
inhibition at 250 µg/mL ([1]; Pseudomonas aeruginosa, ATCC15442, read-out: Average Growth Inhibition (%)): 81% | inhibition at 250 µg/mL (E. coli (ATCC BAA 1427) [2]; Escherichia coli, BAA1427, concentration 250 μg/mL (0.025% w/w), positive control): 63% | inhibition at 250 µg/mL (S. aureus (ATCC 6538) [3]; Staphylococcus aureus, ATCC6538, read-out: Average Growth Inhibition (%)): 121% | MIC (S. aureus; read-out: MIC of CHG Alone): 1.95 µg/mL | MIC (S. aureus; [7]): 0.977 µg/mL | MIC (E. coli; read-out: MIC of CHG Alone): 8 µg/mL | MIC (E. coli; [7]): 4 µg/mL | MIC (P. aeruginosa; read-out: MIC of CHG Alone (μg/mL)): 40 µg/mL | MIC (P. aeruginosa; read-out: MIC of CHG in Presence of BZK (μg/mL)): 2.5 µg/mL | Number of Colonies [4, 8]: 0 | Number of Colonies [4, 9]: no colonies | CFU/mL [4, 10]: 0 CFU/mL | Number of Colonies (E. coli (ATCC BAA 1427) [5]; [8]): 0 | Number of Colonies (E. coli (ATCC BAA 1427) [5]; [9]): no colonies | CFU/mL (E. coli (ATCC BAA 1427) [5]; [10]): 0 CFU/mL | Number of Colonies (S. aureus (ATCC 6538) [6]; [8]): 0 | Number of Colonies (S. aureus (ATCC 6538) [6]; [9]): no colonies | CFU/mL (S. aureus (ATCC 6538) [6]; [10]): 0 CFU/mL

Benzalkonium chloride
Average Growth Inhibition (%) [1, 11]: 4% | Average Growth Inhibition (%) [1, 12]: 5% | Average Growth Inhibition (%) [1, 13]: 7% | Average Growth Inhibition (%) [1, 14]: 7% | Average Growth Inhibition (%) [1, 15]: 8% | Average Growth Inhibition (%) [1, 16]: 8% | Average Growth Inhibition (%) [1, 17]: 28% | Average Growth Inhibition (%) [1, 18]: 100% | MIC that inhibited greater than 90% growth [1, 19]: 60 µg/mL | Average Growth Inhibition (%) (E. coli (ATCC BAA 1427) [2]; [11]): 3% | Average Growth Inhibition (%) (E. coli (ATCC BAA 1427) [2]; [12]): 5% | Average Growth Inhibition (%) (E. coli (ATCC BAA 1427) [2]; [13]): 6% | Average Growth Inhibition (%) (E. coli (ATCC BAA 1427) [2]; [14]): 7% | Average Growth Inhibition (%) (E. coli (ATCC BAA 1427) [2]; [15]): 18% | Average Growth Inhibition (%) (E. coli (ATCC BAA 1427) [2]; [16]): 100% | Average Growth Inhibition (%) (E. coli (ATCC BAA 1427) [2]; [17]): 100% | Average Growth Inhibition (%) (E. coli (ATCC BAA 1427) [2]; [18]): 100% | MIC that inhibited greater than 90% growth (E. coli (ATCC BAA 1427) [2]; [19]): 15 µg/mL | Average Growth Inhibition (%) (S. aureus (ATCC 6538) [3]; [11]): −30% | Average Growth Inhibition (%) (S. aureus (ATCC 6538) [3]; [12]): 100% | Average Growth Inhibition (%) (S. aureus (ATCC 6538) [3]; [13]): 101% | Average Growth Inhibition (%) (S. aureus (ATCC 6538) [3]; [14]): 101% | Average Growth Inhibition (%) (S. aureus (ATCC 6538) [3]; [15]): 99% | Average Growth Inhibition (%) (S. aureus (ATCC 6538) [3]; [16]): 101% | Average Growth Inhibition (%) (S. aureus (ATCC 6538) [3]; [17]): 101% | Average Growth Inhibition (%) (S. aureus (ATCC 6538) [3]; [18]): 98% | MIC that inhibited greater than 90% growth (S. aureus (ATCC 6538) [3]; [19]): 0.9375 µg/mL | MIC of BZK Alone (S. aureus; alone): 0.9375 µg/mL | MIC of BZK in Presence of CHG (S. aureus; in presence of CHG): 0.469 µg/mL | MIC of BZK Alone (E. coli; alone): 15 µg/mL | MIC of BZK in Presence of CHG (E. coli; in presence of CHG): 0.2344 µg/mL | MIC of BZK Alone (P. aeruginosa; alone): 60 µg/mL | MIC of BZK in Presence of CHG (P. aeruginosa; in presence of CHG): 7.5 µg/mL | CFU/mL ([4]; concentration 0.46875 μg/mL): Lawn | Number of Colonies [4, 20]: Lawn (‘Lawn’ indicates too many colonies to accurately count (e.g., greater than 250 colonies on an agar plate)) | CFU/mL ([4]; concentration 0.9375 μg/mL): Lawn | Number of Colonies [4, 21]: Lawn (‘Lawn’ indicates too many colonies to accurately count (e.g., greater than 250 colonies on an agar plate)) | CFU/mL ([4]; concentration 1.875 μg/mL): Lawn | Number of Colonies [4, 22]: Lawn (‘Lawn’ indicates too many colonies to accurately count (e.g., greater than 250 colonies on an agar plate)) | CFU/mL ([4]; concentration 3.75 μg/mL): Lawn | Number of Colonies [4, 23]: Lawn (‘Lawn’ indicates too many colonies to accurately count (e.g., greater than 250 colonies on an agar plate)) | CFU/mL ([4]; concentration 7.5 μg/mL): Lawn | Number of Colonies [4, 24]: Lawn (‘Lawn’ indicates too many colonies to accurately count (e.g., greater than 250 colonies on an agar plate)) | CFU/mL ([4]; concentration 15 μg/mL): Lawn | Number of Colonies [4, 25]: Lawn (‘Lawn’ indicates too many colonies to accurately count (e.g., greater than 250 colonies on an agar plate)) | CFU/mL ([4]; concentration 30 μg/mL): Lawn | Number of Colonies [4, 26]: Lawn (‘Lawn’ indicates too many colonies to accurately count (e.g., greater than 250 colonies on an agar plate)) | CFU/mL ([4]; concentration 60 μg/mL): 166.67 CFU/mL | Number of Colonies [4, 27]: 1.6667 | MBC (defined as having less than 500 CFU/mL) [4, 19]: 60 µg/mL | CFU/mL (E. coli (ATCC BAA 1427) [5]; concentration 0.46875 μg/mL): Lawn | Number of Colonies (E. coli (ATCC BAA 1427) [5]; [20]): Lawn (‘Lawn’ indicates too many colonies to accurately count (e.g., greater than 250 colonies on an agar plate)) | CFU/mL (E. coli (ATCC BAA 1427) [5]; concentration 0.9375 μg/mL): Lawn | Number of Colonies (E. coli (ATCC BAA 1427) [5]; [21]): Lawn (‘Lawn’ indicates too many colonies to accurately count (e.g., greater than 250 colonies on an agar plate)) | CFU/mL (E. coli (ATCC BAA 1427) [5]; concentration 1.875 μg/mL): Lawn | Number of Colonies (E. coli (ATCC BAA 1427) [5]; [22]): Lawn (‘Lawn’ indicates too many colonies to accurately count (e.g., greater than 250 colonies on an agar plate)) | CFU/mL (E. coli (ATCC BAA 1427) [5]; concentration 3.75 μg/mL): Lawn | Number of Colonies (E. coli (ATCC BAA 1427) [5]; [23]): Lawn (‘Lawn’ indicates too many colonies to accurately count (e.g., greater than 250 colonies on an agar plate)) | CFU/mL (E. coli (ATCC BAA 1427) [5]; concentration 7.5 μg/mL): Lawn | Number of Colonies (E. coli (ATCC BAA 1427) [5]; [24]): Lawn (‘Lawn’ indicates too many colonies to accurately count (e.g., greater than 250 colonies on an agar plate)) | CFU/mL (E. coli (ATCC BAA 1427) [5]; concentration 15 μg/mL): 0 CFU/mL | Number of Colonies (E. coli (ATCC BAA 1427) [5]; [25]): 0 | CFU/mL (E. coli (ATCC BAA 1427) [5]; concentration 30 μg/mL): 0 CFU/mL | Number of Colonies (E. coli (ATCC BAA 1427) [5]; [26]): 0 | CFU/mL (E. coli (ATCC BAA 1427) [5]; concentration 60 μg/mL): 0 CFU/mL | Number of Colonies (E. coli (ATCC BAA 1427) [5]; [27]): 0 | MBC (defined as having less than 500 CFU/mL) (E. coli (ATCC BAA 1427) [5]; [19]): 15 µg/mL | CFU/mL (S. aureus (ATCC 6538) [6]; concentration 0.46875 μg/mL): Lawn | Number of Colonies (S. aureus (ATCC 6538) [6]; [20]): Lawn (‘Lawn’ indicates too many colonies to accurately count (e.g., greater than 250 colonies on an agar plate)) | CFU/mL (S. aureus (ATCC 6538) [6]; concentration 0.9375 μg/mL): Lawn | Number of Colonies (S. aureus (ATCC 6538) [6]; [21]): Lawn (‘Lawn’ indicates too many colonies to accurately count (e.g., greater than 250 colonies on an agar plate)) | CFU/mL (S. aureus (ATCC 6538) [6]; concentration 1.875 μg/mL): 1133.3 CFU/mL | Number of Colonies (S. aureus (ATCC 6538) [6]; [22]): 11.333 | CFU/mL (S. aureus (ATCC 6538) [6]; concentration 3.75 μg/mL): 1500 CFU/mL | Number of Colonies (S. aureus (ATCC 6538) [6]; [23]): 15 | CFU/mL (S. aureus (ATCC 6538) [6]; concentration 7.5 μg/mL): 33.333 CFU/mL | Number of Colonies (S. aureus (ATCC 6538) [6]; [24]): 0.333 | CFU/mL (S. aureus (ATCC 6538) [6]; concentration 15 μg/mL): 0 CFU/mL | Number of Colonies (S. aureus (ATCC 6538) [6]; [25]): 0 | CFU/mL (S. aureus (ATCC 6538) [6]; concentration 30 μg/mL): 0 CFU/mL | Number of Colonies (S. aureus (ATCC 6538) [6]; [26]): 0 | CFU/mL (S. aureus (ATCC 6538) [6]; concentration 60 μg/mL): 0 CFU/mL | Number of Colonies (S. aureus (ATCC 6538) [6]; [27]): 0 | MBC (defined as having less than 500 CFU/mL) (S. aureus (ATCC 6538) [6]; [19]): 7.5 µg/mL
